Measured values taken from the NIST ThermoML archive (doi:10.1021/je800224k).

Conditions: Liquid

CCCCCCCC[n+]1ccn(C)c1.F[P-](F)(F)(F)(F)F [1-octyl-3-methylimidazolium hexafluorophosphate]
Conditions | mass density [kg/m3]
293.15 K, 101.33 kPa, Vibrating tube method | 1240.8
312.8 K, 10000 kPa, Bellows volumetry | 1230
312.8 K, 20000 kPa, Bellows volumetry | 1236
312.8 K, 30000 kPa, Bellows volumetry | 1241
312.8 K, 40000 kPa, Bellows volumetry | 1247
312.8 K, 50000 kPa, Bellows volumetry | 1252
312.8 K, 60000 kPa, Bellows volumetry | 1257
312.8 K, 70000 kPa, Bellows volumetry | 1261
312.8 K, 80000 kPa, Bellows volumetry | 1266
312.8 K, 90000 kPa, Bellows volumetry | 1270
312.8 K, 100000 kPa, Bellows volumetry | 1275
312.8 K, 110000 kPa, Bellows volumetry | 1279
312.8 K, 120000 kPa, Bellows volumetry | 1283
312.8 K, 130000 kPa, Bellows volumetry | 1287
312.8 K, 140000 kPa, Bellows volumetry | 1291
312.8 K, 150000 kPa, Bellows volumetry | 1294
312.8 K, 160000 kPa, Bellows volumetry | 1298
312.8 K, 170000 kPa, Bellows volumetry | 1302
312.8 K, 180000 kPa, Bellows volumetry | 1305
312.8 K, 190000 kPa, Bellows volumetry | 1309
312.8 K, 200000 kPa, Bellows volumetry | 1312
313.15 K, 101.33 kPa, Vibrating tube method | 1225
332.6 K, 10000 kPa, Bellows volumetry | 1215
332.6 K, 20000 kPa, Bellows volumetry | 1221
332.6 K, 30000 kPa, Bellows volumetry | 1227
332.6 K, 40000 kPa, Bellows volumetry | 1233
332.6 K, 50000 kPa, Bellows volumetry | 1238
332.6 K, 60000 kPa, Bellows volumetry | 1243
332.6 K, 70000 kPa, Bellows volumetry | 1248
332.6 K, 80000 kPa, Bellows volumetry | 1253
332.6 K, 90000 kPa, Bellows volumetry | 1257
332.6 K, 100000 kPa, Bellows volumetry | 1262
332.6 K, 110000 kPa, Bellows volumetry | 1266
332.6 K, 120000 kPa, Bellows volumetry | 1270
332.6 K, 130000 kPa, Bellows volumetry | 1274
332.6 K, 140000 kPa, Bellows volumetry | 1278
332.6 K, 150000 kPa, Bellows volumetry | 1282
332.6 K, 160000 kPa, Bellows volumetry | 1286
332.6 K, 170000 kPa, Bellows volumetry | 1290
332.6 K, 180000 kPa, Bellows volumetry | 1293
332.6 K, 190000 kPa, Bellows volumetry | 1297
332.6 K, 200000 kPa, Bellows volumetry | 1300
333.15 K, 101.33 kPa, Vibrating tube method | 1210
352.6 K, 10000 kPa, Bellows volumetry | 1200
352.6 K, 20000 kPa, Bellows volumetry | 1207
352.6 K, 30000 kPa, Bellows volumetry | 1213
352.6 K, 40000 kPa, Bellows volumetry | 1219
352.6 K, 50000 kPa, Bellows volumetry | 1224
352.6 K, 60000 kPa, Bellows volumetry | 1230
352.6 K, 70000 kPa, Bellows volumetry | 1235
352.6 K, 80000 kPa, Bellows volumetry | 1240
352.6 K, 90000 kPa, Bellows volumetry | 1245
352.6 K, 100000 kPa, Bellows volumetry | 1249
352.6 K, 110000 kPa, Bellows volumetry | 1254
352.6 K, 120000 kPa, Bellows volumetry | 1258
352.6 K, 130000 kPa, Bellows volumetry | 1262
352.6 K, 140000 kPa, Bellows volumetry | 1266
352.6 K, 150000 kPa, Bellows volumetry | 1270
352.6 K, 160000 kPa, Bellows volumetry | 1274
352.6 K, 170000 kPa, Bellows volumetry | 1278
352.6 K, 180000 kPa, Bellows volumetry | 1282
352.6 K, 190000 kPa, Bellows volumetry | 1286
352.6 K, 200000 kPa, Bellows volumetry | 1289
353.15 K, 101.33 kPa, Vibrating tube method | 1195.2
372.8 K, 10000 kPa, Bellows volumetry | 1186
372.8 K, 20000 kPa, Bellows volumetry | 1193
372.8 K, 30000 kPa, Bellows volumetry | 1199
372.8 K, 40000 kPa, Bellows volumetry | 1205
372.8 K, 50000 kPa, Bellows volumetry | 1211
372.8 K, 60000 kPa, Bellows volumetry | 1217
372.8 K, 70000 kPa, Bellows volumetry | 1222
372.8 K, 80000 kPa, Bellows volumetry | 1227
372.8 K, 90000 kPa, Bellows volumetry | 1232
372.8 K, 100000 kPa, Bellows volumetry | 1237
372.8 K, 110000 kPa, Bellows volumetry | 1242
372.8 K, 120000 kPa, Bellows volumetry | 1246
372.8 K, 130000 kPa, Bellows volumetry | 1250
372.8 K, 140000 kPa, Bellows volumetry | 1255
372.8 K, 150000 kPa, Bellows volumetry | 1259
372.8 K, 160000 kPa, Bellows volumetry | 1263
372.8 K, 170000 kPa, Bellows volumetry | 1267
372.8 K, 180000 kPa, Bellows volumetry | 1271
372.8 K, 190000 kPa, Bellows volumetry | 1274
372.8 K, 200000 kPa, Bellows volumetry | 1278
392.8 K, 10000 kPa, Bellows volumetry | 1171
392.8 K, 20000 kPa, Bellows volumetry | 1179
392.8 K, 30000 kPa, Bellows volumetry | 1186
392.8 K, 40000 kPa, Bellows volumetry | 1192
392.8 K, 50000 kPa, Bellows volumetry | 1198
392.8 K, 60000 kPa, Bellows volumetry | 1204
392.8 K, 70000 kPa, Bellows volumetry | 1209
392.8 K, 80000 kPa, Bellows volumetry | 1215
